Experimental data: PubChem BioAssay AID248 (DTP/NCI, 2004)
“And” between values parts separate entries of the source, which are not always exact repeats. Equal entries are not always repeated. Inconclusive results and toxic doses are left out.

Tested on: L1210 leukemia ip in BDF1 mice, survival T/C
Assay: NCI In Vivo Anticancer Drug Screen. Data for tumor model L1210 Leukemia (intraperitoneal) in B6D2F1 (BDF1) mice
Conditions: endpoint: mean survival time, higher = longer survival
Summary of the method: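 Value reflects the ratio of survival in compound-treated mice to survival in vehicle-treated controls, with both groups carrying the same transplanted tumor.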

[1] = dose: 100.0 mg/kg/injection, schedule: Q04DX003 (ip), vehicle: saline with Tween-80
[2] = dose: 200.0 mg/kg/injection, schedule: Q04DX003 (ip), vehicle: saline with Tween-80
[3] = dose: 50.0 mg/kg/injection, schedule: Q01DX001 (ip), vehicle: saline
[4] = dose: 100.0 mg/kg/injection, schedule: Q01DX001 (ip), vehicle: saline
[5] = dose: 200.0 mg/kg/injection, schedule: Q01DX001 (ip), vehicle: saline
[6] = dose: 100.0 mg/kg/injection, schedule: Q01DX009 (ip), vehicle: Klucel (hydroxypropylcellulose) (HPC)
[7] = dose: 200.0 mg/kg/injection, schedule: Q01DX009 (ip), vehicle: Klucel (hydroxypropylcellulose) (HPC)
[8] = dose: 400.0 mg/kg/injection, schedule: Q01DX009 (ip), vehicle: Klucel (hydroxypropylcellulose) (HPC)
[9] = dose: 400.0 mg/kg/injection, schedule: Q01DX001 (ip), vehicle: saline
[10] = dose: 100.0 mg/kg/injection, schedule: Q04DX003 (ip), vehicle: saline
[11] = dose: 200.0 mg/kg/injection, schedule: Q04DX003 (ip), vehicle: saline
[12] = dose: 400.0 mg/kg/injection, schedule: Q04DX003 (ip), vehicle: saline
[13] = dose: 100.0 mg/kg/injection, schedule: Q04DX003 (ip), vehicle: Klucel (hydroxypropylcellulose) (HPC)
[14] = dose: 200.0 mg/kg/injection, schedule: Q04DX003 (ip), vehicle: Klucel (hydroxypropylcellulose) (HPC)
[15] = dose: 100.0 mg/kg/injection, schedule: Q01DX001 (ip), vehicle: carboxymethylcellulose (CMC)

`CC(=O)NC1C(NC(=O)CC(NC(=O)OCc2ccccc2)C(=O)O)OC(COC(C)=O)C(OC(C)=O)C1OC(C)=O` (stereo not given) was tested, and the T/C (dose: 50.0 mg/kg/injection, schedule: Q04DX002 (ip), vehicle: saline) was 91 % of control, the T/C (dose: 100.0 mg/kg/injection, schedule: Q04DX002 (ip), vehicle: saline) was 94 % of control and the T/C (dose: 200.0 mg/kg/injection, schedule: Q04DX002 (ip), vehicle: saline) was 100 % of control.
`Cn1c(=O)c2c(nc(OCC3CCCCC3)n2C)n(C)c1=O` was tested, and the T/C (dose: 50.0 mg/kg/injection, schedule: Q01DX001 (ip), vehicle: other) was 94 % of control, the T/C (dose: 100.0 mg/kg/injection, schedule: Q01DX001 (ip), vehicle: other) was 100 % of control and the T/C (dose: 200.0 mg/kg/injection, schedule: Q01DX001 (ip), vehicle: other) was 94 % of control. The T/C (dose: 400.0 mg/kg/injection, schedule: Q01DX001 (ip), vehicle: other) was 92 % of control.
For `O=C(Nc1ccccc1)Nn1cnc2ccccc2c1=O`, the T/C [1] was 89 % of control, the T/C [2] was 90 % of control and the T/C (dose: 400.0 mg/kg/injection, schedule: Q04DX003 (ip), vehicle: saline with Tween-80) was 88 % of control.
With `O=C(OCC#CCOC(=O)C(Cl)Cl)C(Cl)Cl` the T/C (dose: 100.0 mg/kg/injection, schedule: Q01DX009 (ip), vehicle: saline) was 107 % of control, the T/C (dose: 200.0 mg/kg/injection, schedule: Q01DX009 (ip), vehicle: saline) was 91 % of control and the T/C (dose: 400.0 mg/kg/injection, schedule: Q01DX009 (ip), vehicle: saline) was 94 % of control.
`CC(=O)c1ccccc1OB(F)F` was tested, and the T/C [3] was 98 % of control, the T/C [4] was 98 % of control and the T/C [5] was 106 % of control.
In the case of `C[C@]1(O)CC[C@H]2[C@@H]3CCC4=CC(=O)CCC4=C3C=C[C@@]21C`, the T/C [6] is reported as 96 % of control, the T/C (dose: 100.0 mg/kg/injection, schedule: Q04DX003 (sc), vehicle: Klucel (hydroxypropylcellulose) (HPC)) is reported as 98 % of control and the T/C [7] is reported as 96 % of control. The T/C (dose: 200.0 mg/kg/injection, schedule: Q04DX003 (sc), vehicle: Klucel (hydroxypropylcellulose) (HPC)) was 95 % of control, the T/C [8] was 110 % of control and the T/C (dose: 400.0 mg/kg/injection, schedule: Q04DX003 (sc), vehicle: Klucel (hydroxypropylcellulose) (HPC)) was 101 % of control.
With `Nc1ccc(CCNS(=O)(=O)c2ccc(S(=O)(=O)F)cc2)cc1` the T/C [4] was 103 % of control, the T/C [5] was 97 % of control and the T/C [9] was 107 % of control.
With `CC1(C)OCC(CO)(Nc2nc(N3CC3)nc(N3CC3)n2)CO1` the T/C (dose: 0.31 mg/kg/injection, schedule: Q01DX009 (ip), vehicle: saline) was 105 % of control, the T/C (dose: 0.62 mg/kg/injection, schedule: Q01DX009 (ip), vehicle: saline) was 111 % of control and the T/C (dose: 2.5 mg/kg/injection, schedule: Q01DX009 (ip), vehicle: saline) was 152 % of control and 168 % of control. For the same compound, the T/C (dose: 7.5 mg/kg/injection, schedule: Q01DX009 (ip), vehicle: saline) was 101 % of control.
`CC1N=C(c2ccc(N)cc2)OC1C` (stereo not given) was tested, and the T/C (dose: 100.0 mg/kg/injection, schedule: Q01DX001 (ip), vehicle: Klucel (hydroxypropylcellulose) (HPC)) was 102 % of control, the T/C (dose: 200.0 mg/kg/injection, schedule: Q01DX001 (ip), vehicle: Klucel (hydroxypropylcellulose) (HPC)) was 98 % of control and the T/C (dose: 400.0 mg/kg/injection, schedule: Q01DX001 (ip), vehicle: Klucel (hydroxypropylcellulose) (HPC)) was 100 % of control.
For `CN(C)C=Nc1ccc([N+](=O)[O-])cc1`, the T/C [3] was 89 % of control, the T/C [4] was 89 % of control and the T/C (dose: 100.0 mg/kg/injection, schedule: Q01DX009 (ip), vehicle: saline with Tween-80) was 96 % of control. The T/C [5] was 96 % of control, the T/C (dose: 200.0 mg/kg/injection, schedule: Q01DX009 (ip), vehicle: saline with Tween-80) was 89 % of control and the T/C [9] was 91 % of control. For the same compound, the T/C (dose: 400.0 mg/kg/injection, schedule: Q01DX009 (ip), vehicle: saline with Tween-80) was 90 % of control.
`Cc1ccccc1N=P(c1ccccc1)(c1ccccc1)c1ccccc1` was tested, and the T/C (dose: 100.0 mg/kg/injection, schedule: Q01DX009 (ip), vehicle: gum acacia) was 100 % of control, the T/C (dose: 100.0 mg/kg/injection, schedule: Q04DX003 (ip), vehicle: gum acacia) was 93 % of control and the T/C (dose: 200.0 mg/kg/injection, schedule: Q01DX009 (ip), vehicle: gum acacia) was 102 % of control. For the same compound, the T/C (dose: 200.0 mg/kg/injection, schedule: Q04DX003 (ip), vehicle: gum acacia) was 90 % of control and the T/C (dose: 400.0 mg/kg/injection, schedule: Q04DX003 (ip), vehicle: gum acacia) was 93 % of control.
With `CNc1ccc(Cl)cc1C` the T/C (dose: 100.0 mg/kg/injection, schedule: Q04DX002 (sc), vehicle: olive oil, sesame oil, peanut oil) was 103 % of control, the T/C (dose: 200.0 mg/kg/injection, schedule: Q04DX002 (sc), vehicle: olive oil, sesame oil, peanut oil) was 110 % of control and the T/C (dose: 400.0 mg/kg/injection, schedule: Q04DX002 (sc), vehicle: olive oil, sesame oil, peanut oil) was 100 % of control.
For `O=C(NNCc1ccccc1)c1ccccn1`, the T/C (dose: 12.5 mg/kg/injection, schedule: Q01DX009 (ip), vehicle: Klucel (hydroxypropylcellulose) (HPC)) was 102 % of control, the T/C (dose: 25.0 mg/kg/injection, schedule: Q01DX009 (ip), vehicle: Klucel (hydroxypropylcellulose) (HPC)) was 94 % of control and the T/C (dose: 50.0 mg/kg/injection, schedule: Q01DX009 (ip), vehicle: Klucel (hydroxypropylcellulose) (HPC)) was 97 % of control. The T/C [6] was 94 % of control.
With `O=[N+]([O-])c1ccc(C#[C][Hg][C]#Cc2ccc([N+](=O)[O-])cc2)cc1` the T/C [10] was 95 % of control, the T/C [11] was 91 % of control and the T/C [12] was 98 % of control.
With `CCc1cc[c]([Hg][Cl])o1` the T/C (dose: 12.5 mg/kg/injection, schedule: Q01DX001 (ip), vehicle: other) was 100 % of control and the T/C (dose: 25.0 mg/kg/injection, schedule: Q01DX001 (ip), vehicle: other) was 100 % of control.
With `CN(C)/C=N/Nc1ccc([N+](=O)[O-])cc1[N+](=O)[O-]` the T/C [6] was 94 % of control, the T/C [13] was 102 % of control and the T/C [7] was 94 % of control. For the same compound, the T/C [14] was 97 % of control, the T/C [8] was 96 % of control and the T/C (dose: 400.0 mg/kg/injection, schedule: Q04DX003 (ip), vehicle: Klucel (hydroxypropylcellulose) (HPC)) was 97 % of control.
In the case of `O=C(O)COc1ccc(Cl)cc1Cl` (tested in a mixture with another compound), the T/C (dose: 25.0 mg/kg/injection, schedule: Q04DX003 (ip), vehicle: saline) is reported as 102 % of control, the T/C (dose: 50.0 mg/kg/injection, schedule: Q04DX003 (ip), vehicle: saline) is reported as 98 % of control and the T/C [15] is reported as 93 % of control. For the same compound, the T/C (dose: 100.0 mg/kg/injection, schedule: Q04DX003 (ip), vehicle: other) was 90 % of control, the T/C (dose: 200.0 mg/kg/injection, schedule: Q04DX003 (ip), vehicle: other) was 95 % of control and the T/C (dose: 400.0 mg/kg/injection, schedule: Q04DX003 (ip), vehicle: other) was 115 % of control.
`CCSc1cc(C(=O)O)cc([N+](=O)[O-])c1` was tested, and the T/C [10] was 104 % of control, the T/C [11] was 93 % of control and the T/C [12] was 94 % of control.
With `Nc1ccc2c(c1)/C(=N/O)c1cc([N+](=O)[O-])ccc1-2` the T/C [15] was 100 % of control, the T/C (dose: 200.0 mg/kg/injection, schedule: Q01DX001 (ip), vehicle: carboxymethylcellulose (CMC)) was 105 % of control and the T/C (dose: 400.0 mg/kg/injection, schedule: Q01DX001 (ip), vehicle: carboxymethylcellulose (CMC)) was 112 % of control.
In the case of `CC(=O)N1Cc2ccc(/C=C(/C#N)C(N)=O)n2Cc2cc3c(cc21)OCO3`, the T/C (dose: 25.0 mg/kg/injection, schedule: Q04DX002 (ip), vehicle: Klucel (hydroxypropylcellulose) (HPC)) is reported as 91 % of control, the T/C (dose: 50.0 mg/kg/injection, schedule: Q04DX002 (ip), vehicle: Klucel (hydroxypropylcellulose) (HPC)) is reported as 98 % of control and the T/C (dose: 100.0 mg/kg/injection, schedule: Q04DX002 (ip), vehicle: Klucel (hydroxypropylcellulose) (HPC)) is reported as 91 % of control.
For `CC(=O)Oc1ccc(Cl)cc1Cl`, the T/C [1] was 100 % of control and the T/C [2] was 97 % of control.
With `O=C(O)C(c1ccccc1)N1C(=O)c2ccccc2C1=O` (stereo not given) the T/C (dose: 50.0 mg/kg/injection, schedule: Q04DX003 (ip), vehicle: Klucel (hydroxypropylcellulose) (HPC)) was 104 % of control, the T/C [13] was 109 % of control and the T/C [14] was 104 % of control.
In the case of `C1=CC2CCC1NO2` (stereo not given), the T/C [4] is reported as 105 % of control, the T/C [5] is reported as 95 % of control and the T/C [9] is reported as 101 % of control.
